Reference: patent US9868935B2, “Composition and method of stem cells for preservation of cardiac tissue” (CRIOESTAMINAL, SAÚDE E TECNOLOGIA, SA., priority 2012, dated 2018)

What was measured:
[1] = tested on: CD34+ cells encapsulated in fibrin gel; experiment: Survival of CD34+ cells encapsulated in fibrin gels in hypoxia and serum deprived conditions; type: cell-based, human; details: LPA-treated
Experimental: In an embodiment, fibrin gels were formed by crosslinking of fibrinogen in the presence of thrombin (both from Sigma-Aldrich). The fibrinogen solution was prepared by dissolving human fibrinogen in Tris-buffered saline (TBS) (preferably, Sigma-Aldrich), pH 7.4 (20 mg/mL), and then sterilized by filtering through a 0.22 μm syringe filter (Acrodisc, Pall, NY, USA). Fresh thrombin solutions were prepared by dissolving human thrombin in TBS at pH 7.4 at a concentration of 50 U/mL. Fibrin gels (200 μL, unless otherwise stated) were prepared by mixing three different components: fibrinogen (10 mg/mL), CaCl2 (preferably, Merck, NJ, USA) ([…]) and thrombin (0.2 U/mL). This solution was allowed to gel at 37° C. and 100% relative humidity.
Injectable scaffolds are very promising vehicles to deliver stem cells for regenerative medicine since they provide a favorable structural support for cell survival and proliferation (Pedroso, D. C., et al., Improved survival, vascular differentiation and wound healing potential of stem cells co-cultured with endothelial cells. PLoS One, 2011. 6(1): p. e16114; Kraehenbuehl, T. P., R. Langer, and L. S. Ferreira, Three-dimensional biomaterials for the study of human pluripotent stem cells. Nat Methods, 2011. 8(9): p. 731-6; Nakamuta, J. S., et al., Cell therapy attenuates cardiac dysfunction post myocardial infarction: effect of timing, routes of injection and a fibrin scaffold. PLoS One, 2009. 4(6): p. e6005.). Several studies have shown that cells transplanted with scaffolds in the cardiac setting improved cell survival, induced angiogenesis and preserved cardiac function after infarction (Nakamuta, J. S., et al., Cell therapy attenuates cardiac dysfunction post myocardial infarction: effect of timing, routes of injection and a fibrin scaffold. PLoS One, 2009. 4(6): p. e6005; Christman, K. L., et al., Fibrin glue alone and skeletal myoblasts in a fibrin scaffold preserve cardiac function after myocardial infarction. Tissue Eng, 2004. 10(3-4): p. 403-9; Kraehenbuehl, T. P., et al., Human embryonic stem cell-derived microvascular grafts for cardiac tissue preservation after myocardial infarction. Biomaterials, 2011. 32(4): p. 1102-9; Kutschka, I., et al., Collagen matrices enhance survival of transplanted cardiomyoblasts and contribute to functional improvement of ischemic rat hearts. Circulation, 2006. 114(1 Suppl): p. I167-73). […] Cell viability was evaluated by flow cytometry using Annexin V/propidium iodide (PI) staining.

CD34+ cells = experiment: Cytokine secretion by CD34+ cells (Bio-Plex cytokine bead array); type: cell-based, human; details: LPA 100 μM; hypoxia, serum free, 24 h
Experimental: In an embodiment, cell culture supernatants were evaluated for the presence and concentrations of cytokines using a Bio-Plex Pro Human Cytokine 17-Plex Panel Assay (preferably, Bio-Rad, Hercules, Calif., USA), according to manufacturer's instructions, in a Bio-Plex 200 System (Bio-Rad, www.bio-rad.com). The human Group I 17-Plex Panel consisted of the following analytes: interleukin-1β (IL-1β), IL-2, IL-4, IL-5, IL-6, IL-7, IL-8; IL-10, IL-12(p70), IL-13, IL-17, granulocyte colony-stimulating factor (G-CSF), granulocyte/macrophage colony-stimulating factor (GM-CSF), interferon-γ (IFN-γ), monocyte chemotactic protein (monocyte chemotactic activating factor [MCP-1 (MCAF)], macrophage inflammatory protein-β (MIP-1 β) and tumor necrosis factor-α (TNF-α). Supernatant media samples were collected, centrifuged to remove precipitates and frozen. A standard range of 0.2 to 3,200 pg/mL was used. Samples and controls were run in triplicate, standards and blanks in duplicate.
To determine the effect of LPA in the release of signaling cytokines and growth factors by CD34+ cells, was used a cytokine bead array. The cells were incubated in serum free medium X-Vivo for 24 h under normoxia or hypoxia conditions, either in the presence or absence of LPA (100 μM). Untreated CD34+ cells in normoxia express high levels (>100 pg/mL) of IL-8 and MIP-1b, medium levels (between 100 and 1 pg/mL) of IL-6, TNF-α and GM-CSF, and low levels (<1 pg/mL) of IL-1β, IL-4 and IL-17 (FIG. 5C).

[2] = target: T1, peroxisome proliferator-activator receptor γ (PPAR γ) (Homo sapiens, UniProt P37231); details: literature studies; cited from earlier work
T1 sequence (P37231 1-505): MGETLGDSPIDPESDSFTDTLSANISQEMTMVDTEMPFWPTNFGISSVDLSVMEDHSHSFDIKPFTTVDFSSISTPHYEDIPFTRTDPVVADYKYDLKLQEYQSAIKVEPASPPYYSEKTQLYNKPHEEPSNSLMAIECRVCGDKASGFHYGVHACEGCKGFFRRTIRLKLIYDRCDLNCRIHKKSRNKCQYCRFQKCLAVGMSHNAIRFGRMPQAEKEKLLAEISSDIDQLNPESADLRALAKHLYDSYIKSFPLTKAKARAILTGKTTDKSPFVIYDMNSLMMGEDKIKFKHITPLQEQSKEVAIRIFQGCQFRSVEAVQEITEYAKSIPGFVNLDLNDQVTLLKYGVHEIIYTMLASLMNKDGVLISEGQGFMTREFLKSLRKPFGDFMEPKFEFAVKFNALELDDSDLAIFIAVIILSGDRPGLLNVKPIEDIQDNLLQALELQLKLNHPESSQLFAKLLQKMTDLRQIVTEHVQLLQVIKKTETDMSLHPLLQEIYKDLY

Substance: lysophosphatidic acid [LPA]
- viable cells ([1]; encapsulated in fibrin gel, hypoxia day 1): 69.0±0.7%
- viable cells ([1]; encapsulated in fibrin gel, hypoxia day 3): 51.1±0.8%
- viable cells ([1]; non-encapsulated, hypoxia day 1): 76.7±1.5%
- viable cells ([1]; non-encapsulated, hypoxia day 3): 37.2±6.6%
- secretion of GM-CSF (CD34+ cells): ~1 pg/mL
- secretion of IL-1 (CD34+ cells): ~2 pg/mL
- secretion of IL-4 (CD34+ cells): ~2.7 pg/mL
- secretion of IL-6 (CD34+ cells): ~2 pg/mL
- secretion of IL-8 (CD34+ cells): ~17,000 pg/mL
- secretion of TNF-α (CD34+ cells): ~15 pg/mL
- affinity for PPARγ [2]: high affinity
